Reference: paper PMC8006714 (Chemical Communications (Cambridge, England), 2021)
Entries after “also recorded” stand apart in the source; their conditions may differ. Counter-ions that a name gives are not always drawn.

Target: T1, SARS-CoV-2 M^pro (Severe acute respiratory syndrome coronavirus 2, UniProt P0DTD1)
Experiment: not given
Assay type: binding
Settings: 1 μM M^pro preincubated with 3 μM N3, 20 μM inhibitor

Compound	covalent modification of M^pro preincubated with N3 (active site selectivity)
Cc1ccc(S(=O)(=O)/C=C/C#N)cc1 [BAY 11-7082]	multiple adducts observed with unmodified M^pro were diminished; also recorded: to a lesser extent compared to active site free M pro
O=C1C(SCCO)=C(SCCO)C(=O)c2ccccc21 [NSC 95397]	does not selectively bind to the M pro active site

Same assay, conditions: 1 μM M^pro, 20 μM inhibitor, 20 mM HEPES pH 7.5, 50 mM NaCl

Compound	covalent modification of M^pro (protein observed SPE-MS)
Cc1ccc(S(=O)(=O)/C=C/C#N)cc1 [BAY 11-7082]	reacts with Mpro at multiple position
O=c1c2ccccc2[se]n1-c1ccccc1 [Ebselen]	covalently reacts multiple times with Mpro
O=C1C(SCCO)=C(SCCO)C(=O)c2ccccc21 [NSC 95397]	reacts with Mpro at multiple positions

Same assay, conditions: 1 μM M^pro, 20 μM inhibitor, 20 mM HEPES pH 7.5, 50 mM NaCl; listed as ebselen

Compound	covalent modification of M^pro (protein observed SPE-MS)
O=c1c2ccccc2[se]n1-c1ccccc1 [Ebselen]	modifies M^pro in a covalent manner; also recorded: time dependent modification of multiple residues

Same assay, conditions: 1 µM Mpro, 100 fold excess of β-lactam, 25 min to 24 h

Compound	covalent reaction with M^pro (protein observed SPE-MS)
CCN1CCN(C(=O)N[C@@H](C(=O)N[C@]2(OC)C(=O)N3C(C(=O)O)=C(CSc4nnnn4C)CS[C@@H]32)[C@H](C)O)C(=O)C1=O [cefbuperazone]	evidence for more than one reaction was accrued
CO[C@@]1(NC(=O)C2SC(=C(C(N)=O)C(=O)O)S2)C(=O)N2C(C(=O)O)=C(CSc3nnnn3C)CS[C@@H]21 (some centres unmarked) [cefotetan]	evidence for more than one reaction was accrued
CO[C@@]1(NC(=O)Cc2cccs2)C(=O)N2C(C(=O)O)=C(COC(N)=O)CS[C@@H]21 [cefoxitin]	evidence for more than one reaction was accrued
O=C(O)[C@H]1/C(=C/CO)O[C@@H]2CC(=O)N21 [clavulanate]	(partial) inhibitor fragmentation was observed
CO[C@@]1(NC(=O)C(C(=O)O)c2ccc(O)cc2)C(=O)N2C(C(=O)O)=C(CSc3nnnn3C)CO[C@@H]21 (some centres unmarked) [moxalactam]	(partial) inhibitor fragmentation was observed
C[C@]1(Cn2ccnn2)[C@H](C(=O)O)N2C(=O)C[C@H]2S1(=O)=O [tazobactam]	increased over time

Target: T1, SARS-CoV-2 M^pro
Experiment: biochemical
Assay type: biochemical
Settings: not given

Compound	% Mpro inhibition at 20 µM	M^pro inhibition (in words)	inhibition at a fixed 20 μM inhibitor concentration [%]
Br.NC1CCc2cc(O)c(O)cc2C1 (racemic) [(±)-2-Amino-6,7-dihydroxy-1,2,3,4-tetrahydronaphthalene hydrobromide]	88.3%	–	–
O=Nc1ccc2oc(=O)ccc2c1 [6-Nitroso-1,2-benzopyrone]	99.5%	–	–
Br.CCCN1CCc2cc(O)cc3c2[C@H]1Cc1ccc(O)c(O)c1-3 [(R)-(−)-2,10,11-Trihydroxy-n-propylnoraporphine hydrobromide]	98.3%	–	–
CCCN1CCc2cccc3c2[C@H]1Cc1ccc(O)c(O)c1-3.Cl [(R)-(−)-Propylnorapomorphine hydrochloride]	100.0%	–	–
N.S=C(S)N1CCCC1 [Ammonium pyrrolidinedithiocarbamate]	95.1%	–	–
OC[C@H]1O[C@H]([S-])[C@H](O)[C@@H](O)[C@@H]1O.[Au+] [Aurothioglucose]	96.6%	–	–
Cc1ccc(S(=O)(=O)/C=C/C#N)cc1 [BAY 11-7082]	92.0%	–	–
CC(C)(C)c1ccc(S(=O)(=O)/C=C/C#N)cc1 [Bay 11-7085]	95.0%	–	–
CC=CC1=C(C(=O)O)N2C(=O)[C@@H](NC(=O)[C@H](N)c3ccc(O)cc3)[C@H]2SC1 [Cefprozil]	57.5%	–	–
CO/N=C(\C(=O)N[C@@H]1C(=O)N2C(C(=O)O)=C(CSC(=O)c3ccco3)CS[C@H]12)c1csc(N)n1.Cl [Ceftiofur hydrochloride]	65.0%	–	–
CC(=O)OCC1=C(C(=O)[O-])N2C(=O)[C@@H](NC(=O)CCCC(N)C(=O)O)[C@H]2SC1.[Na+] (some centres unmarked) [Cephalosporin C sodium]	78.3%	inhibited	–
CCN(CC)C(=S)SSC(=S)N(CC)CC [Disulfiram, Tetraethylthiuram disulphide]	–	–	≥ 80
O=C([O-])c1ccccc1-c1c2cc(I)c(=O)c(I)c-2oc2c(I)c([O-])c(I)cc12.[Na+].[Na+] [Erythrosine sodium]	86.5%	–	–
NC(N)=Nc1ccc2[nH]c3c(c2c1)C[C@@]1(O)[C@H]2Cc4ccc(O)c5c4[C@@]1(CCN2CC1CC1)[C@H]3O5.O=C(O)C(F)(F)F.O=C(O)C(F)(F)F [Guanidinyl-naltrindole di-trifluoroacetate]	99.6%	–	–
NC(=O)CI [Iodoacetamide]	99.3%	–	–
O=C(N[C@@H](Cc1ccccc1)C(=O)CCl)OCc1ccccc1 [N-Carbobenzyloxy-L-phenylanlanyl chloromethyl ketone]	100.0%	–	–
O=C1C(SCCO)=C(SCCO)C(=O)c2ccccc21 [NSC 95397]	99.0%	–	–
CCN[C@@H]1C[C@H](N)[C@@H](O[C@H]2OC(CN)=CC[C@H]2N)[C@H](O)[C@H]1O[C@H]1OC[C@](C)(O)[C@H](NC)[C@H]1O.CCN[C@@H]1C[C@H](N)[C@@H](O[C@H]2OC(CN)=CC[C@H]2N)[C@H](O)[C@H]1O[C@H]1OC[C@](C)(O)[C@H](NC)[C@H]1O.O=S(=O)(O)O.O=S(=O)(O)O.O=S(=O)(O)O.O=S(=O)(O)O.O=S(=O)(O)O [Netilmicin sulfate]	89.1%	–	–
CC(Cc1ccc(O)c(O)c1)C(C)Cc1ccc(O)c(O)c1 (centres unmarked) [Nordihydroguaiaretic acid]	97.8%	–	–
Oc1ccccc1O [Pyrocatechol]	85.4	–	–
C[n+]1cc2c3c(ccc2c2ccc4cc5c(cc4c21)OCO5)OCO3 [Sanguinarium chloride, Sanguinarine chloride]	98.7%	–	–
Br.CN=c1nc(-c2ccccc2)n(-c2ccccc2)s1 [Sch-202676 hydrobromide]	100.0%	–	–
CC(C)N(CCC(=O)c1ccc2ccccc2c1)Cc1ccccc1.Cl [ZM 39923 hydrochloride]	96.9%	–	–
[Cl-].[NH3+][Pt-2]([NH3+])([Cl])[n+]1ccccc1 (stereo not drawn) [cis-Diammine(pyridine)chloroplatinum(II) chloride]	99.6%	–	–
(R)-(−)-2,10,11-Trihydroxyaporphine hybrobromide	99.6%	–	–
Chlorophyllide copper complex sodium salt	86.5%	–	–
Colistin sulfate	95.8%	–	–

Same assay, conditions: 20, 50 and 100 µM β-lactam; 30 min or 60 min preincubation (Fig. S17)

Compound	M^pro inhibition at single concentrations (in words)
C=CC1=C(C(=O)O)N2C(=O)[C@@H](NC(=O)/C(=N\O)c3csc(N)n3)[C@H]2SC1 [Cefdinir]	weak time dependent inhibition
CO/N=C(\C(=O)N[C@@H]1C(=O)N2C(C(=O)O)=C(CSC(=O)c3ccco3)CS[C@H]12)c1csc(N)n1 [ceftiofur]	weak time dependent inhibition
O=C1[C@H](CC[C@H](O)c2ccc(F)cc2)[C@@H](c2ccc(O)cc2)N1c1ccc(F)cc1 [ezetimibe]	weak time dependent inhibition
CC1(C)S[C@@H]2[C@H](NC(=O)Cc3ccccc3)C(=O)N2[C@H]1C(=O)O [penicillin G]	No inhibition was observed
CC1(C)S[C@@H]2[C@H](NC(=O)COc3ccccc3)C(=O)N2[C@H]1C(=O)O [penicillin V]	No inhibition was observed
CC1(C)S[C@@H]2[C@H](NC(=O)[C@H](N)c3ccccc3)C(=O)N2[C@H]1C(=O)OC1OC(=O)c2ccccc21 (some centres unmarked) [talampicillin]	weak time dependent inhibition

Same assay, conditions: SPE-MS, concentration not given

Compound	M^pro inhibition (in words)
CC1=C(C(=O)O)N2C(=O)[C@@H](NC(=O)[C@H](N)c3ccccc3)[C@H]2SC1 [cephalexin]	no Mpro inhibition was observed

Same assay, conditions: library of FDA-approved small molecules; 20 µM compound, […] Mpro, 2.0 µM TSAVLQ/SGFRK-NH2; read-out: % Mpro inhibition at 20 µM

Compound	inhibition at 20 µM [%]
Cc1c(-c2cnccn2)ssc1=S [Oltipraz]	99.6

Same assay, conditions: read-out: % Mpro inhibition at 20 µM

Compound	inhibition at 20 µM [%]
O=C1C=CC(=O)C=C1 [1,4-Benzoquinone]	99.3
O=c1oc(Cl)c(Cl)c2ccccc12 [3,4-Dichloroisocoumarin]	80.4
S=C=NCc1ccccc1 [Benzyl isothiocyanate]	95.8
NC(=O)c1cc[n+](CC2=C(C(=O)[O-])N3C(=O)[C@@H](NC(=O)Cc4cccs4)[C@H]3SC2)cc1 [Cefalonium]	9.2
CO/N=C(\C(=O)N[C@@H]1C(=O)N2C(C(=O)O)=C(C[N+]3(C)CCCC3)CS[C@H]12)c1csc(N)n1 [Cefepime hydrochloride]	20.6
NCc1ccccc1CC(=O)N[C@@H]1C(=O)N2C(C(=O)O)=C(CSc3nnnn3CC(=O)O)CS[C@H]12 [Ceforanide]	10.2
COc1ccc2c(c[n+](C)c3c4cc5c(cc4ccc23)OCO5)c1OC [Chelerythrine chloride]	85.2
CC(=O)/N=c1/sc(S(N)(=O)=O)nn1C [Methazolamide]	82.9
Oc1cc(O)cc(/C=C/c2ccc(O)c(O)c2)c1 [Piceatannol]	93.8
CC[N+]1(C)CCCC(OC(=O)C(O)(c2ccccc2)c2ccccc2)C1 (centres unmarked) [Pipenzolate bromide]	100
C[n+]1cc2c3c(ccc2c2ccc4cc5c(cc4c21)OCO5)OCO3 [Sanguinarium chloride, Sanguinarine chloride]	100

Same assay, conditions: read-out: % Mpro inhibition at 20 µM, LOPAC1280 library; 20 µM compound, […] Mpro, 2.0 µM TSAVLQ/SGFRK-NH2

Compound	inhibition at 20 µM [%]
Oc1cc2c(cc1O)CN(C(=S)NCCc1ccc(Cl)cc1)CCC2 [Capsazepine]	94.5
N[C@@H](C(=O)N[C@@H]1C(=O)N2C(C(=O)O)=C(Cl)CS[C@H]12)c1ccccc1 [Cefaclor]	8.7
CCN(CC)C(=S)SSC(=S)N(CC)CC [Disulfiram, Tetraethylthiuram disulphide]	97.5

Same assay, conditions: read-out: % Mpro inhibition at 20 µM, library of FDA-approved small molecules; 20 µM compound, […] Mpro, 2.0 µM TSAVLQ/SGFRK-NH2

Compound	inhibition at 20 µM [%]
CCN(CC)C(=S)SSC(=S)N(CC)CC [Disulfiram, Tetraethylthiuram disulphide]	99.1
O=c1c2ccccc2[se]n1-c1ccccc1 [Ebselen]	99.1
O=[N+]([O-])c1ccc(O)c2ncccc12 [Nitroxoline]	96
